Test results taken from patent publication US7863446B2, “Heterocycles” (Orchid Research Laboratories Limited, priority 2006, dated 2011).

Key:
[1] = target: T1, COX-2 (Homo sapiens, UniProt P35354); assay: Human whole blood assay (PGE-2 inhibition, COX-2); format: cell-based; conditions: LPS stimulated human whole blood, NA = No activity, read-out: % PGE-2 Inhibition in hWBA
T1 construct: Fresh blood was collected in tubes containing sodium heparin by vein puncture from healthy male volunteers; endogenous in cells; host or cells: human whole blood from healthy male volunteers, stimulated with LPS
T1 sequence (P35354 18-604): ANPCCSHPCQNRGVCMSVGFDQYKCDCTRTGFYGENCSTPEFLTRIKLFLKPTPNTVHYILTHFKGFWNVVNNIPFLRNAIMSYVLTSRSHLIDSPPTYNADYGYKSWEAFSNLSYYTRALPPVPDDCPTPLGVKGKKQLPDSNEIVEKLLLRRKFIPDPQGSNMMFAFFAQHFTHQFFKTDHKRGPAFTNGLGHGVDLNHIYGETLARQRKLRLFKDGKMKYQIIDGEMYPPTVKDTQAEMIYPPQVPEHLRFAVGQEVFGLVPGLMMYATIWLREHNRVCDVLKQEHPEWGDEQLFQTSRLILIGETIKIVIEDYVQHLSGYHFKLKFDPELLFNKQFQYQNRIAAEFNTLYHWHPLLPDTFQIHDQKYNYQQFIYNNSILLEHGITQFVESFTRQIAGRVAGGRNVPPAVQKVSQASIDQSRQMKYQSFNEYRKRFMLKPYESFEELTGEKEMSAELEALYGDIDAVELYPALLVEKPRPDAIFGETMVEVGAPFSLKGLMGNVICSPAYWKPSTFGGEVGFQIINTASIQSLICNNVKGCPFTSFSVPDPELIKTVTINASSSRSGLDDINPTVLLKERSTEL
Procedure: In Vitro Evaluation of Cyclooxygenase-2 (Cox-2) Inhibition Activity
The COX-2 inhibition activities of the compounds illustrated in the examples were determined by the following method.
Human whole blood provides a protein and cell rich milieu appropriate for the study of the biochemical efficacy of anti-inflammatory compounds such as selective COX-2 inhibitors. […] This correlates with the observation that COX-2 inhibitors have no effect on prostaglandin E2 (PGE2) production in normal blood. These inhibitors were active only after incubation of human blood with lipopolysaccharide (LPS), which induces COX-2 production in the blood.
Fresh blood was collected in tubes containing sodium heparin by vein puncture from healthy male volunteers. The subjects should have no apparent inflammatory conditions and should have not taken NSAIDs for at least 7 days prior to blood collection. Blood was preincubated with aspirin in vitro (12 μg/ml, at time zero) to inactivate COX-1 for 6 hours. Then test compounds (at various concentrations) or vehicle were added to blood, the blood was stimulated with LPS B:4 (10 μg/ml) and incubated for another 18 hours at 37° C. water bath. After which the blood was centrifuged, plasma was separated and stored at −80° C. (J. Pharmacol. Exp. Ther, 271, 1705, 1994; Proc. Natl. Acad. Sci. USA, 96, 7563, 1999). The plasma was assayed for PGE2 using Cayman ELISA kit as per the procedure outlined by the manufacturer (Cayman Chemicals, Ann Arbor, USA).

[2] = tested on: TNF-α; assay: LPS induced sepsis for measurement of TNF-α inhibition in mice; format: in vivo; conditions: 50 mg/kg, oral, mice, serum 90 minutes after LPS
Procedure: LPS Induced Sepsis for Measurement of TNF-α Inhibition in Mice
The LPS induced sepsis model in mice was performed as described by Les sekut et al (J Lab Clin Med 1994; 124:813-20). Female Swiss albino mice were selected and the body weights were equivalent within each group. The mice were fasted for 20 hours with free access to water. The mice were dosed orally with the test compound suspended in vehicle containing 0.5% Tween 80 in 0.25% Carboxy-methylcellulose sodium salt. The control mice were administered the vehicle alone. After 30 minutes of oral dosing, mice were injected with 500 μg of Lipopolysaccharide (Escherichia coli, LPS: B4 from Siga) in phosphate buffer saline solution into the intraperitoneal cavity of the mice. After 90 minutes of LPS administration mice were bled via retro-orbital sinus puncture. Blood samples were stored overnight at 4° C. Serum samples were collected by centrifuging the samples at 4000 rpm for 15 minutes at 4° C. Immediately the serum samples were analysed for TNF-α levels using commercially available mouse TNF-α ELISA kit (Amersham Biosciences) and assay was performed by the manufacturer instruction.
ED50 Measurement of TNF alpha Inhibition in Mice Sepsis Model

[3] = tested on: Animals (male wistar); assay: Ulcerogenic potential; format: in vivo; conditions: oral, 4 hours after administration
Procedure: In order to evaluate the compound's role on the ulcer formation, the animals were sacrificed and the stomach was taken out and flushed with 1% formalin. Animals (male wistar. 200 g) were fasted for 18 hours with free access to water and the test compounds were suspended in 0.5% Tween 80 and 0.25% CMC (carboxymethylcellulose) solution to make a uniform suspension. After 4 hours of oral administration of test compounds, all the animals were sacrificed by cervical dislocation. The stomach was dissected carefully and filled up with a sterile saline solution and embedded in 6% formalin solution. […] The test compound treated groups were compared with the vehicle treated groups. […]

[4] = tested on: TNF-α; assay: In vitro measurement of TNF-α in human PBMC (LPS stimulated); format: cell-based
How it was run: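 Healthy-volunteer PBMC (0.5 million/well) in RPMI were pre-incubated with compound 15 min at 37 °C. They were then stimulated with E. coli B4 LPS 1 μg/ml for 18 h at 37 °C, 5% CO2. TNF-α in culture medium was measured by ELISA.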

inhibition at 0.25 µM ([1]; 0.25 μM): 6.1% | inhibition at 1 µM ([1]; 1 μM): 22.9% | inhibition at 10 µM ([1]; 10 μM): 35.6% | melting point: 226 to 230 °C
SMILES: CNS(=O)(=O)c1ccc(-c2c(Cl)nc(C(F)(F)F)nc2-c2ccc(S(C)(=O)=O)cc2)cc1 [Example 4, 4-{4-Chloro-6-[4-(methylsulfonyl)phenyl]-2-(trifluoromethyl)pyrimidin-5-yl}-N-methylbenzenesulfonamide]
TNF-α Inhibition (%) at 50 mg/kg [2]: 38.37% | Ulcer incidence at 5 mg/kg [3]: Nil | inhibition at 1 µM ([4]; 1 μM, NA = No activity, read-out: TNF-α Inhibition (%) at Conc. (1 μM)): 30% | inhibition at 10 µM ([4]; 10 μM, read-out: TNF-α Inhibition (%) at Conc. (10 μM)): 107%
